In patent US20230106880A1, “INHIBITORS OF HUMAN IMMUNODEFICIENCY VIRUS REPLICATION” (VIIV HEALTHCARE UK (NO.5) LIMITED, priority 2020, published 2023) one finds EC50 and CC50 data, which are given here for four compounds.

The term pEC50 denotes −log10 of the EC50, conventionally taken in molar units. The CC50 is the concentration at which the toxic effect on the cells reaches its halfway point.

Structures are written as SMILES. pEC50: −log10 of the molar value.

The subject of data set [1] is recombinant NL4-3 virus (Renilla luciferase) in MT-2 cells. Briefly: HIV cell culture assay (antiviral, luciferase readout in infected MT-2 cells). In kind it is cell-based. The conditions noted are these: NL43. As for the experimental part:
HIV cell culture assay—MT-2 cells, 293T cells and the proviral DNA clone of NL4-3 virus were obtained from the NIH AIDS Research and Reference Reagent Program. MT-2 cells were propagated in RPMI 1640 media supplemented with 10% heat inactivated fetal bovine serum (FBS), […]. The 293T cells were propagated in DMEM media supplemented with 10% heat inactivated FBS, […]. A recombinant NL4-3 proviral clone, in which a section of the nef gene was replaced with the Renilla luciferase gene, was used to make the reference virus used in these studies. The recombinant virus was prepared through transfection of the recombinant NL4-3 proviral clone into 293T cells using Transit-293 Transfection Reagent from Mirus Bio LLC (Madison, Wis.). Supernatent was harvested after 2-3 days and the amount of virus present was titered in MT-2 cells using luciferase enzyme activity as a marker by measuring luciferase enzyme activity. Luciferase was quantitated using the EnduRen Live Cell Substrate from Promega (Madison, Wis.). Antiviral activities of compounds toward the recombinant virus were quantified by measuring luciferase activity in MT-2 cells infected for 4-5 days with the recombinant virus in the presence of serial dilutions of the compound.
The 50% effective concentration (EC50) was calculated by using the exponential form of the median effect equation where (Fa)=1/[1+(ED50/drug conc.)m] (Johnson V A, Byington R T. Infectivity Assay. In Techniques in HIV Research. ed. Aldovini A, Walker B D. 71-76. New York: Stockton Press. 1990). The 50% inhibitory concentration (EC50) was calculated by using the exponential form of the median effect equation where percent inhibition=1/[1+(EC50/drug concentration)m], where m is a parameter that reflects the slope of the concentration-response curve.

A short description of data set [2]: Compound cytotoxicity, XTT-based colorimetric assay in uninfected MT2 cells. Format: cell-based. The conditions noted are these: human, day 4, XTT assay. The protocol:
Compound cytotoxicity and the corresponding CC50 values were determined using the same protocol as described in the antiviral assay except that uninfected cells were used. Cytotoxicity was assessed on day 4 in uninfected MT2 cells by using an XTT (2,3-bis[2-Methoxy-4-nitro-5-sulfophenyl]-2H-tetrazolium-5-carboxyanilide inner salt)-based colorimetric assay (Sigma-Aldrich, St Louis, Mo.).

As for `Cn1nc(NS(C)(=O)=O)c2c(Cl)ccc(-n3c([C@H](Cc4cc(F)cc(F)c4)NC(=O)Cn4nc(C5CC5)c5c4C(F)(F)[C@H]4C[C@@H]54)nc4nc(OCCC(F)(F)F)ccc4c3=O)c21` (atropisomer, axis not shown; (P)) [Example 4, N—((S)-1-((3P)-3-(4-chloro-1-methyl-3-(methylsulfonamido)-1H-indazol-7-yl)-4-oxo-7-(3,3,3-trifluoropropoxy)-3,4-dihydropyrido[2,3-d]pyrimidin-2-yl)-2-(3,5-difluorophenyl)ethyl)-2-((3bR,4aS)-3-cyclopropyl-5,5-difluoro-3b,4,4a,5-tetrahydro-1H-cyclopropa[3,4]cyclopenta[1,2-c]pyrazol-1-yl)acetamide], in data set [1], the pEC50 is 10.10. The CC50 at 4 day in data set [2] is above 100 nM.
For the compound `Cn1nc(NS(C)(=O)=O)c2c(Cl)ccc(-n3c([C@H](Cc4cc(F)cc(F)c4)NC(=O)Cn4nc(C5CC5)c5c4C(F)(F)[C@@H]4C[C@H]54)nc4nc(OCCC(C)(F)F)ccc4c3=O)c21` (atropisomer, axis not shown; (P)) [Example 1, N—((S)-1-((3P)-3-(4-chloro-1-methyl-3-(methylsulfonamido)-1H-indazol-7-yl)-7-(3,3-difluorobutoxy)-4-oxo-3,4-dihydropyrido[2,3-d]pyrimidin-2-yl)-2-(3,5-difluorophenyl)ethyl)-2-((3bS,4aR)-3-cyclopropyl-5,5-difluoro-3b,4,4a,5-tetrahydro-1H-cyclopropa[3,4]cyclopenta[1,2-c]pyrazol-1-yl)acetamide], the pEC50 in data set [1] was 10.57. Besides, in data set [2], the CC50 at 4 day was above 100 nM.
For `Cn1nc(NS(C)(=O)=O)c2c(Cl)ccc(-n3c([C@H](Cc4cc(F)cc(F)c4)NC(=O)Cn4nc(C5CC5)c5c4C(F)(F)[C@@H]4C[C@H]54)nc4nc(OCCC(F)(F)F)ccc4c3=O)c21` (atropisomer, axis not shown; (P)) [Example 3, N—((S)-1-((3P)-3-(4-chloro-1-methyl-3-(methylsulfonamido)-1H-indazol-7-yl)-4-oxo-7-(3,3,3-trifluoropropoxy)-3,4-dihydropyrido[2,3-d]pyrimidin-2-yl)-2-(3,5-difluorophenyl)ethyl)-2-((3bS,4aR)-3-cyclopropyl-5,5-difluoro-3b,4,4a,5-tetrahydro-1H-cyclopropa[3,4]cyclopenta[1,2-c]pyrazol-1-yl)acetamide], the pEC50 in data set [1] was 10.85. This compound gave a CC50 at 4 day in data set [2] above 100 nM.
For `Cn1nc(NS(C)(=O)=O)c2c(Cl)ccc(-n3c([C@H](Cc4cc(F)cc(F)c4)NC(=O)Cn4nc(C5CC5)c5c4C(F)(F)[C@H]4C[C@@H]54)nc4nc(OCCC(C)(F)F)ccc4c3=O)c21` (atropisomer, axis not shown; (P)) [Example 2, N—((S)-1-((3P)-3-(4-chloro-1-methyl-3-(methylsulfonamido)-1H-indazol-7-yl)-7-(3,3-difluorobutoxy)-4-oxo-3,4-dihydropyrido[2,3-d]pyrimidin-2-yl)-2-(3,5-difluorophenyl)ethyl)-2-((3bR,4aS)-3-cyclopropyl-5,5-difluoro-3b,4,4a,5-tetrahydro-1H-cyclopropa[3,4]cyclopenta[1,2-c]pyrazol-1-yl)acetamide], in data set [1], the pEC50 was 10.30. For the same compound, in data set [2], the CC50 at 4 day was above 100 nM.
